The experiment concerns DOI induced HTR in mice. Put plainly: Blockade of DOI-induced HTR. Type of experiment: in vivo, mouse. Particulars: 10 min before DOI 1 mg/kg. The protocol:
The “E559 polymorph” was studied for its effect to block the hallucinogenic (HTR) response of a psychedelic 2,5-Dimethoxy-4-iodoamphetamine (DOI) in the mouse HTR model. DOI is a serotonergic hallucinogenic compound used commonly as a positive control in HTR model [Halberstadt et al., Psychopharmacology (Berl). 2013 June; 227(4):727-39]. An HTR study was performed as described in Example 2 as follows: Five groups of mice (n=6-7 per group, 31 total) were either treated with vehicle (saline) or with the “E559 polymorph” at 0.1, 0.3, 1, or 3 mg/kg. Ten minutes later, all of the mice were injected with DOI (1 mg/kg) and then HTR activity was assessed for 30 min. […] All doses of the “E559 polymorph” were effective in blocking the response to DOI in a dose-dependent manner. The data are represented as group means±standard deviation and asterisks indicate statistical significances (*p<0.0001) compared to the vehicle (saline) control (0 mg/kg in FIG. 13A).
The time course of the blockade of the DOI induced HTR by the “E559 polymorph” was examined. An HTR study was performed as described in Example 2 as follows: Two groups of mice (n=6 per group) were either treated with vehicle or with the “E559 polymorph” at 1 mg/kg. Ten minutes later, all of the mice were injected with DOI (1 mg/kg) and then HTR activity was assessed for 30 min. […] The data are represented as group means±standard deviation and asterisks indicate statistical significances (*p<0.0001) compared to the vehicle (saline) control (0 mg/kg in FIG. 13B). The time course of the blockade of the DOI induced HTR by the “E559 polymorph” mirrors the time course of the pharmacokinetics of the “E559 polymorph” in the mouse brain tissue (shown in Example 3).

SMILES strings stand for the structures.

For `CCN(CC)C(=O)[C@@H]1C=C2c3cccc4[nH]c(Br)c(c34)C[C@H]2N(C)C1` [E559, (5R, 8R)-2-Bromo-9,10-didehydro-N,N-diethyl-6-methylergoline-8-carboxamide hemi-D-tartrate], for the setting “1 mg/kg”, the “blockade of DOI induced HTR, time course” value is “almost completely blocked the DOI induced HTR during the first 10 minutes” and the “time after which blockage of DOI induced HTR was no longer detected” value fell in the range of 40 to 60 min. Also, for the setting “0.1, 0.3, 1 or 3 mg/kg”, the “attenuation of DOI-induced HTR” value is listed as “significantly attenuated the ability of DOI to induce the HTR in mice”.

The record behind these values is patent US12331051B2 (priority 2021, dated 2025).
